This passage reports IC50 results from patent US20160193216A1 (Nimbus Iris, Inc., priority 2012, published 2016).

Usually IC50 stands for the concentration that inhibits the measured activity by half.

The test has as its target T1, IRAK4 (Homo sapiens, UniProt Q9NWZ3).
T1 sequence (Q9NWZ3 1-460): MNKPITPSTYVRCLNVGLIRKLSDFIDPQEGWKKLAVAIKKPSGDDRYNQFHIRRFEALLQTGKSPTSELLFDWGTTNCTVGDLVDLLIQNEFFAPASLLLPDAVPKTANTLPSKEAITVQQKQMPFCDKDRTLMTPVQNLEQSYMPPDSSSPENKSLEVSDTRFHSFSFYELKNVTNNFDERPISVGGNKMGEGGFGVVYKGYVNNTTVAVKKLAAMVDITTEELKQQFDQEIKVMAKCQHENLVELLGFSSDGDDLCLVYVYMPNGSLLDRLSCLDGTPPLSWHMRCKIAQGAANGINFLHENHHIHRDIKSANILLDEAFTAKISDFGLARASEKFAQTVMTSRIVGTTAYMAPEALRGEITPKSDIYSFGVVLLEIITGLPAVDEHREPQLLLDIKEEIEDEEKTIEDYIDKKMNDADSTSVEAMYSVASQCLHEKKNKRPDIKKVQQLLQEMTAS
Put plainly: IRAK-4 activity inhibition assay (Caliper). The note with it: 37 μM ATP, 3.5 nM IRAK4. It is filed as biochemical.
Turning to `CN(C)[C@H]1CC[C@H](Oc2ncnc3sc4c(c23)[C@@H](C[C@@H](O)C(N)=O)CC4)CC1` [Compound I-75, (2R)-3-[(3R)-12-[[4-(dimethylamino)cyclohexyl]oxy]-7-thia-9,11-diazatricyclo[6.4.0.0̂[2,6]]dodeca-1(8),2(6),9,11-tetraen-3-yl]-2-hydroxypropanamide], the IC50 was less than 5 µM.
To `COCCN(CCOC)[C@H]1CC[C@H](Oc2ncnc3sc4c(c23)[C@@H](CC(N)=O)CC4)CC1` [Compound I-134, 2-[(3R)-12-([4-[bis(2-methoxyethyl)amino]cyclohexyl]oxy)-7-thia-9,11-diazatricyclo[6.4.0.0[2,6]]dodeca-1(12),2(6),8,10-tetraen-3-yl]acetamide] belongs less than 5 µM; to `OCC[C@H]1CCc2sc3ncnc(O[C@H]4CC[C@H](N5CCOCC5)CC4)c3c21` [Compound I-66, 2-[(3R)-12-[[4-(morpholin-4-yl)cyclohexyl]oxy]-7-thia-9,11-diazatricyclo[6.4.0.0[2,6]]dodeca-1(12),2(6),8,10-tetraen-3-yl]ethan-1-ol], less than 5 µM; to `CS(=O)(=O)N1CCc2sc3ncnc(O[C@H]4CC[C@H](N5CCOCC5)CC4)c3c2C1` [Compound I-187, 12-methanesulfonyl-3-[[4-(morpholin-4-yl)cyclohexyl]oxy]-8-thia-4,6, 12-triazatricyclo[7.4.0.0[2,7]]trideca-1(9),2(7),3,5-tetraene], less than 5 µM.
Next, `CN(C)[C@H]1CC[C@H](Nc2ncnc3sc4c(c23)C(CC(=O)N2CCCC2)CC4)CC1` (stereo partly shown) [Compound I-14, 2-(4-(((1r,4r)-4-(dimethylamino)cyclohexyl)amino)-6,7-dihydro-5H-cyclopenta[4,5]thieno[2,3-d]pyrimidin-5-yl)-1-(pyrrolidin-1-yl)ethanone]: greater than 50 µM; `C[C@@H](O)C[C@H]1CCc2sc3ncnc(N[C@H]4CC[C@H](N(C)C)CC4)c3c21` [Compound I-53]: less than 5 µM; `NC(=O)C[C@H]1CCc2sc3ncnc(OC4CCC(NC5COC5)CC4)c3c21` (stereo partly drawn) [Compound I-132, 2-[(3R)-12-([4-[(oxetan-3-yl)amino]cyclohexyl]oxy)-7-thia-9,11-diazatricyclo[6.4.0.0[2,6]]dodeca-1(8),2(6),9,11-tetraen-3-yl]acetamide]: less than 5 µM.
To `C=C[C@@H](O)C[C@H]1CCc2sc3ncnc(O[C@H]4CC[C@@](N)(CC)CC4)c3c21` [Compound I-126, (2S)-1-[(3R)-12-[(4-amino-4-ethylcyclohexyl)oxy]-7-thia-9,11-diazatricyclo[6.4.0.0[2,6]]dodeca-1(8),2(6),9,11-tetraen-3-yl]but-3-en-2-ol] belongs less than 5 µM; to `CN(C)[C@H]1CC[C@H](Oc2ncnc3sc4c(c23)[C@@H](C[C@H](O)c2cc[nH]n2)CC4)CC1` [Compound I-96, (S)-2-((R)-4-(((1r,4R)-4-(dimethylamino)cyclohexyl)oxy)-6,7-dihydro-5H-cyclopenta[4,5]thieno[2,3-d]pyrimidin-5-yl)-1-(1H-pyrazol-3-yl)ethanol], less than 5 µM.
`CC[C@H](C[C@H]1CCc2sc3ncnc(O[C@H]4CC[C@H](N(C)C)CC4)c3c21)OC` [Compound I-117, 4-[[(3R)-3-[(2R)-2-methoxybutyl]-7-thia-9,11-diazatricyclo[6.4.0.0[2,6]]dodeca-1(8),2(6),9,11-tetraen-12-yl]oxy]-N,N-dimethylcyclohexan-1-amine]: the IC50 was less than 5 µM.
To `CNC(=O)N1CCc2sc3ncnc(O[C@H]4CC[C@H](N(C)C)CC4)c3c2C1` [Compound I-169, 3-[[4-(dimethylamino)cyclohexyl]oxy]-N-methyl-8-thia-4,6,12-triazatricyclo[7.4.0.0[2,7]]trideca-1(9),2(7),3,5-tetraene-12-carboxamide] belongs less than 5 µM; to `CN(CC(=O)N1CCCC1)[C@H]1CC[C@H](Nc2ncnc3sc4c(c23)[C@@H](CC(N)=O)CC4)CC1` [Compound I-123, 2-[(3R)-12-[(4-[methyl[2-oxo-2-(pyrrolidin-1-yl)ethyl]amino]cyclohexyl)amino]-7-thia-9,11-diazatricyclo[6.4.0.0[2,6]]dodeca-1(8),2(6),9,11-tetraen-3-yl]acetamide], less than 5 µM.
`CCOCCC1CCc2sc3ncnc(O[C@H]4CC[C@H](N(C)C)CC4)c3c21` (stereo partly shown) [Compound I-31, 4-[[3-(2-ethoxyethyl)-7-thia-9,11-diazatricyclo[6.4.0.0[2,6]]dodeca-1(8),2(6),9,11-tetraen-12-yl]oxy]-N,N-dimethylcyclohexan-1-amine] gave an IC50 of 5 to 20 µM.
The compound `CN(C)[C@H]1CC[C@H](Oc2ncnc3sc4c(c23)CC(CCO)OC4)CC1` (stereo partly shown) [Compound I-219, 2-(3-[[4-(dimethylamino)cyclohexyl]oxy]-1-oxa-8-thia-4,6-diazatricyclo[7.4.0.0[2,7]]trideca-1(9),2,4,6-tetraen-12-yl)ethan-1-ol] had an IC50 of less than 5 µM.
Next, `CC[C@H](O)C[C@H]1CCc2sc3ncnc(O[C@H]4CC[C@](CC)(N(C)C)CC4)c3c21` [Compound I-104, (2S)-1-[(3R)-12-[[4-(dimethylamino)-4-ethylcyclohexyl]oxy]-7-thia-9,11-diazatricyclo[6.4.0.0[2,6]]dodeca-1(8),2(6),9,11-tetraen-3-yl]butan-2-ol]: 5 to 20 µM.
Next, `CN(C)[C@H]1CC[C@H](Oc2ncnc3sc4c(c23)C(CCO)CC4)CC1` (stereo partly shown) [Compound I-21, 2-(4-(((1r,4r)-4-(dimethylamino)cyclohexyl)oxy)-6,7-dihydro-5H-cyclopenta[4,5]thieno[2,3-d]pyrimidin-5-yl)ethanol]: less than 5 µM.
To `CN[C@H]1CC[C@H](Oc2ncnc3sc4c(c23)[C@@H](C[C@H](C#N)OC)CC4)CC1` [Compound I-81, (2R)-2-methoxy-3-[(3R)-12-[[4-(methylamino)cyclohexyl]oxy]-7-thia-9,11-diazatricyclo[6.4.0.0[2,6]]dodeca-1(8),2(6),9,11-tetraen-3-yl]propanenitrile] belongs 5 to 20 µM; to `CN(C)[C@H]1CC[C@H](Oc2ncnc3sc4c(c23)[C@H](CO)CC4)CC1` [Compound I-20, ((S)-4-(((1r,4S)-4-(dimethylamino)cyclohexyl)oxy)-6,7-dihydro-5H-cyclopenta[4,5]thieno[2,3-d]pyrimidin-5-yl)methanol], less than 5 µM; to `CN(C)[C@H]1CC[C@H](Nc2ncnc3sc4c(c23)C(CC(N)=O)CC4)CC1` (stereo partly shown) [Compound I-13, 2-(4-(((1r,4r)-4-(dimethylamino)cyclohexyl)amino)-6,7-dihydro-5H-cyclopenta[4,5]thieno[2,3-d]pyrimidin-5-yl)acetamide], less than 5 µM.
In the case of `CCC(O)C[C@@H]1CCc2sc3ncnc(O[C@H]4CC[C@H](N5CCOCC5)CC4)c3c2C1` (stereo partly drawn) [Compound I-183, 1-((R)-4-(((1r,4R)-4-morpholinocyclohexyl)oxy)-5,6,7,8-tetrahydrobenzo[4,5]thieno[2,3-d]pyrimidin-6-yl)butan-2-ol], the IC50 is less than 5 µM.
Next, `NC(=O)CC[C@H]1CCc2sc3ncnc(O[C@H]4CC[C@H](N5CCOCC5)CC4)c3c21` [Compound I-84, 3-((S)-4-(((1r,4S)-4-morpholinocyclohexyl)oxy)-6,7-dihydro-5H-cyclopenta[4,5]thieno[2,3-d]pyrimidin-5-yl)propanamide]: less than 5 µM; `C[C@H](O)C[C@H]1CCc2sc3ncnc(N[C@H]4CC[C@H](N(C)C)CC4)c3c21` [Compound I-55]: less than 5 µM.
